Columns and labels:
Assay in all cases: chnB monooxygenase activity by NADPH oxidation at 340 nm
Format in all cases: biochemical
[1] = tested on: Rhodococcus sp. phi1 chnB monooxygenase; conditions: purified over-expressed enzyme; 1.25 mM substrate; pH 7.5; ND = No Activity Detected
Text: (§1) Following amplification, the chnB gene fragments were cloned into pTrcHis-TOPO TA vectors with either an N-terminal tail or C-terminal tail, as provided by the vector sequence (N-terminal tail for Brevibacterium sp. HCU, Rhodococcus sp. phi1, Rhodococcus sp. phi2, and Arthrobacter sp. BP2 monooxygenases; C-terminal tail for Acinetobacter sp. SE19 and Acidovorax sp. CHX monooxygenases). These vectors were transformed into E. coli, with transformants grown in Luria-Bertani broth supplemented with ampicillin (100 ug/ml) and riboflavin (0.1 ug/ml) at 30° C. until the absorbance at 600 nm (A600) reached 0.5. When the A600 was reached, the temperature was shifted to 16° C.
(§2) The encoded monooxygenase sequences were expressed upon addition of IPTG to the culture media, 30 min after the temperature shift to 16° C. The cultures were grown further overnight (14 hrs) and harvested by centrifugation in a cold centrifuge. The cells were treated with lysozyme (100 mg/ml) for 30 min on ice and sonicated. Following sonication, cell extracts were centrifuged and the supernatant was equilibrated with Ni-NTA resin (Qiagen, Valencia, Calif.) for 1 hr at 4° C. Protein bound resin was washed successively with increasing concentrations of imidazole buffer until the protein of interest was released from the resin. The purified protein was concentrated and the buffer exchanged to remove the imidazole. The protein concentration was adjusted to 1 ug/ml.
(§3) Compounds were selected on the basis of previous observations by van der Werf (J. Biochem. 347:693–701 (2000)) and Miyamoto et al. (Biochimica et Biophysica Acta 1251: 115–124 (1995)) and by searches for the ketone substructure.
(§4) All compounds were obtained from Sigma-Aldrich with only two exceptions. Levoglucosenone was obtained from Toronto Research Chemicals, Inc. and dimethyl-2-piperidone was prepared according to U.S. Pat. No. 6,077,955. For enzyme assays all compounds were dissolved to a concentration of 0.1 M in methanol, with the exceptions of norcamphor (dissolved in ethyl acetate), cyclododecanone, cycltridecanone and cyclopentadecanone (dissolved in propanol), and levoglucosenone (dissolved with acetone).
(§5) The monooxygenase activity of each over-expressed enzyme was assayed spectrophotometrically at 340 nm by monitoring the oxidation of NADPH. Assays were performed in individual quartz cuvettes, with a pathlength of 1 cm. […] An Ultrospec 4000 (Pharmacia Biotech, Cambridge, England) was used to read the absorbance of the samples over a two to ten minute time period and the SWIFT (Pharmacia Biotech) program was used to calculate the slope of the reduction in absorbance over time. For the Brevibacterium sp. […] Monooxygenase activity of each over-expressed enzyme is shown in Table 5, with respect to each ketone substrate. The specific activity values listed are given in umol/min/mg. The notation “ND” refers to “No Activity Detected”.

[2] = tested on: Brevibacterium sp. HCU chnB2 monooxygenase; conditions: purified over-expressed enzyme; 1.25 mM substrate; pH 7.5; rates multiplied by a factor of 3.25 to adjust for decrease in activity due to storage; ND = No Activity Detected
Text: as §1, §2, §3, §4, §5

[3] = tested on: Brevibacterium sp. HCU chnB1 monooxygenase; conditions: purified over-expressed enzyme; 1.25 mM substrate; pH 7.5; ND = No Activity Detected
Text: as §1, §2, §3, §4, §5

[4] = tested on: Acidovorax sp. CHX chnB monooxygenase; conditions: purified over-expressed enzyme; 1.25 mM substrate; pH 7.5; ND = No Activity Detected
Text: as §1, §2, §3, §4, §5

[5] = target: T1, Acinetobacter sp. SE19 chnB monooxygenase (Acinetobacter sp., UniProt Q9F7E4); conditions: purified over-expressed enzyme; 1.25 mM substrate; pH 7.5; ND = No Activity Detected
T1 construct: expression in E. coli of isolated full length BVMO genes from Brevibacterium sp; HCU, Acinetobacter SE19; C-terminal tail provided by the pTrcHis-TOPO vector (C); made in house; host or cells: E. coli
Text: as §1, §2, §3, §4, §5

[6] = tested on: Rhodococcus sp. phi2 chnB monooxygenase; conditions: purified over-expressed enzyme; 1.25 mM substrate; pH 7.5; ND = No Activity Detected
Text: as §1, §2, §3, §4, §5

[7] = tested on: Arthrobacter sp. BP2 chnB monooxygenase; conditions: purified over-expressed enzyme; 1.25 mM substrate; pH 7.5; ND = No Activity Detected
Text: as §1, §2, §3, §4, §5

Compound	Specific Activity of Monooxygenase Enzymes Against Various Ketone Substrates, sp. phi1 chnB [1]	Specific Activity of Monooxygenase Enzymes Against Various Ketone Substrates, sp. CHX chnB [4]	other results
CCCCCCC(=O)CCCCCC [dihexyl ketone]	0.160 µmol/min/mg		Specific Activity of Monooxygenase Enzymes Against Various Ketone Substrates, sp. HCU chnB2 [2]: 0.270 µmol/min/mg
O=C1CC2CC[C@H]1C2 [Norcamphor]			Specific Activity of Monooxygenase Enzymes Against Various Ketone Substrates, sp. HCU chnB1 [3]: 0.410 µmol/min/mg
O=C1CCCC(=O)C1 [1,3-cyclohexanedione]		0.032 µmol/min/mg	
O=C1CCCCCCCCCCC1 [Cyclododecanone]		0.051 µmol/min/mg	
O=C1CCCCCCCCC1 [Cyclodecanone]	0.077 µmol/min/mg	0.160 µmol/min/mg	Specific Activity of Monooxygenase Enzymes Against Various Ketone Substrates, sp. SE19 chnB [5]: 0.320 µmol/min/mg
O=C1CCCCC1c1ccccc1 (centres unmarked) [2-phenyl-cyclohexanone]			Specific Activity of Monooxygenase Enzymes Against Various Ketone Substrates, sp. phi2 chnB [6]: 0.730 µmol/min/mg
O=C1CCCCCCC1 [Cyclooctanone]		0.410 µmol/min/mg	
O=C1CCCCCCCCCC1 [Cycloundecanone]		0.058 µmol/min/mg	Specific Activity of Monooxygenase Enzymes Against Various Ketone Substrates, sp. phi2 chnB [6]: 0.051 µmol/min/mg; Specific Activity of Monooxygenase Enzymes Against Various Ketone Substrates, sp. BP2 chnB [7]: 0.064 µmol/min/mg; Specific Activity of Monooxygenase Enzymes Against Various Ketone Substrates, sp. SE19 chnB [5]: 0.064 µmol/min/mg
C[S+](C)[O-] [dimethyl sulfoxide]			Specific Activity of Monooxygenase Enzymes Against Various Ketone Substrates, sp. HCU chnB1 [3]: 0.230 µmol/min/mg
CCCCCCCCCCCC(C)=O [2-tridecanone]	0.160 µmol/min/mg	0.096 µmol/min/mg	
O=C1CCCCC1=O [1,2-cyclohexanedione]	0.083 µmol/min/mg	0.096 µmol/min/mg	Specific Activity of Monooxygenase Enzymes Against Various Ketone Substrates, sp. SE19 chnB [5]: 0.077 µmol/min/mg

Reference: US7105296B2, “Genes encoding Baeyer-Villiger monooxygenases” (E. I. du Pont de Nemours and Company, priority 2001, dated 2006)
